The results in this text go back to ChEMBL document CHEMBL2396534, “Long-chain triazolyl acids as inhibitors of osteoclastogenesis” (2013).

As a reminder, the inhibition is the drop in the measured response relative to a control, in per cent.

The subject of experiment [1] is Bone marrow cell. Kind of experiment: Inhibition of osteoclastogenesis in CD1 mouse bone marrow cells at 0.1 to 10 ug/ml added on day 2 and day 4 measured on day 7 by TRAP assay. The format is functional, cell-based.
The test system of experiment [2] is Bone marrow cell. Kind of experiment: Inhibition of osteoclastogenesis in CD1 mouse bone marrow cells at 72 uM added on day 2 and day 4 measured on day 7 by TRAP assay relative to control. It is filed as functional.
The test system of experiment [3] is Bone marrow cell. Kind of experiment: Inhibition of osteoclastogenesis in CD1 mouse bone marrow cells at 37 uM added on day 2 and day 4 measured on day 7 by TRAP assay relative to control. It is filed as functional.
Experiment [4] relates to Bone marrow cell. Kind of experiment: Inhibition of osteoclastogenesis in CD1 mouse bone marrow cells at 5 ug/ml added on day 2 and day 4 measured on day 7 by TRAP assay relative to GW9508. It is filed as functional, cell-based.
Experiment [5] concerns Bone marrow cell. Description: Inhibition of osteoclastogenesis in CD1 mouse bone marrow cells at 0.01 ug/ml added on day 2 and day 4 measured on day 7 by TRAP assay relative to control. It is filed as functional.

Structures are written as SMILES. Active and inactive are the calls of the source. The calls are words filed in the database; no cut-off is given here.

With `O=C(O)CCc1ccc(NCc2cccc(Oc3ccccc3)c2)cc1` [GW9508], the inhibition entry in the experiment on Bone marrow cell [1] was “Dose-dependent effect”. The inhibition at 72 µM with Bone marrow cell [2] came out at 28.2%. For `CCCOCCCCCCCCCCCC(=O)O`, the inhibition entry in the experiment on Bone marrow cell [1] is “Dose-dependent effect”. This compound also came in with an inhibition at 37 µM with Bone marrow cell [3] of 73.2%. In the experiment with Bone marrow cell [3], `CCCCCCCCCCCn1cc(CC(=O)O)nn1` showed an inhibition at 37 µM of 38.8%. For `CCCCCCCCCCCCOCCC(=O)O`, in the experiment on Bone marrow cell [1], the inhibition result was “Dose-dependent effect”. Also, the inhibition at 37 µM in the experiment on Bone marrow cell [3] amounted to 80.8%. The like results for `CCCCCCCCCOCCCCCC(=O)O` were, in that order, “inactive” and 100%.

Consider `CCCCCCCCCn1cc(CCCC(=O)O)nn1`, for which, in the experiment on Bone marrow cell [1], the inhibition result is “Active”. The compound further showed an inhibition at 37 µM in the experiment with Bone marrow cell [3] of 22.2%. With `COCCOCCOCCCCCCCC(=O)O`, in the experiment with Bone marrow cell [3], the inhibition at 37 µM came to 100%.

Consider `CCCCCCCCCCCCCCCC(=O)O` [PALMITIC ACID], for which the inhibition entry in the experiment with Bone marrow cell [4] and in the experiment with Bone marrow cell [1] was “Active” each time. The compound also showed an inhibition at 37 µM with Bone marrow cell [3] of 73.8%. `CCCCCCCCCCCCCOCC(=O)O` had an inhibition at 37 µM with Bone marrow cell [3] of 100%. For the compound `CCCCCCCCCCOCCCCC(=O)O`, the inhibition entry in the experiment with Bone marrow cell [1] was “Dose-dependent effect”. In the experiment on Bone marrow cell [3], testing at 37 µM gave an inhibition of 65.4%.

In the case of `CCCCCCOCCCCCCCCC(=O)O`, the inhibition result in the experiment on Bone marrow cell [1] was “inactive”. The compound also showed an inhibition at 37 µM with Bone marrow cell [3] of 100%. As for `CCCCCCCCCCn1cc(CCC(=O)O)nn1`, the inhibition entry in the experiment with Bone marrow cell [1] was “Active”. Also, in the experiment on Bone marrow cell [3], the inhibition at 37 µM was 26.7%.

Regarding `CCCCCCCCCCC#CCCCCCC(=O)O` [OSTEOPROTEGERIN], 0.01 µg/mL produced 32.6% inhibition in the experiment on Bone marrow cell [5]. On to `CCCCCCCn1cc(CCCCCC(=O)O)nn1`, for which, in the experiment on Bone marrow cell [4], the inhibition entry is “Active”. Further, the inhibition entry with Bone marrow cell [1] is “Dose-dependent effect”. Also, 37 µM produced 21.5% inhibition in the experiment with Bone marrow cell [3].

In the experiment on Bone marrow cell [3], `CCCCCn1cc(CCCCCCCC(=O)O)nn1` gave an inhibition at 37 µM of 33.8%. For the compound `CCn1cc(CCCCCCCCCCC(=O)O)nn1`, the inhibition entry in the experiment with Bone marrow cell [4] is “Active”. For the same compound, in the experiment with Bone marrow cell [1], the inhibition result was “Dose-dependent effect”. This compound also came in with an inhibition at 37 µM in the experiment with Bone marrow cell [3] of 16.9%. As for `CCCCCOCCCCCCCCCC(=O)O`, in the experiment with Bone marrow cell [1], the inhibition result is “inactive”. The same compound registered an inhibition at 37 µM in the experiment with Bone marrow cell [3] of 100%.
